# Test results taken from publication PMC7896091, “Synthesis of novel phytol-derived γ-butyrolactones and evaluation of their biological activity” (Scientific Reports, 2021).
# Columns and labels:
# [1] = system: Myzus persicae; experiment: Aphid settling (choice test) on treated vs control leaves of Brassica rapa subsp. pekinensis; assay type: in vivo; conditions: for Mean number of aphids settled on treated (test) leaf: 0.1% solution in 70% ethanol, mean (± SD), n = 8, 20 aphids/replicate; for Effect on aphid settling behavior (deterrent / attractant): choice test, 0.1% solution, significance p < 0.05 Student t-test
# Protocol: The peach potato aphids Myzus persicae (Sulzer) and the Chinese cabbage Brassica rapa subsp. pekinensis (Lour.) Hanelt were reared in laboratory at 20 °C, 65% r.h., and L16:8D photoperiod. One to seven days old apterous females of M. persicae and 3-week old plants with 4–5 fully developed leaves were used for experiments. M. persicae were obtained from the laboratory culture maintained at the Department of Botany and Ecology for many generations since 2000. All experiments were carried out under the same conditions of temperature, relative humidity, and photoperiod. The bioassays were started at 10–11.a.m. Each compound was dissolved in 70% ethanol to obtain the recommended 0.1% solution[40]. All compounds were applied on the adaxial and abaxial leaf surfaces by immersing a leaf in the ethanolic solution of a given compound for 30 s.[20]. Control leaves of similar size were immersed in 70% ethanol that was used as a solvent for the studied compounds. Experiments were performed 1 h after the compounds application to allow the evaporation of the solvent. Every plant and aphid were used only once.
# This bioassay allows the study of aphid host preferences under semi-natural conditions. In the present study, aphids were given free choice between control and treated excised leaves that were placed in a Petri dish. Aphids were placed in the dish equidistance from treated and untreated leaves, so that aphids could choose between treated (on one half of a Petri dish) and control leaves (on the other half of the dish). […] Each experiment was replicated 8 times (n = 8 replicates, 20 viviparous apterous females/replicate). Aphids that were moving or not on any of the leaves were not counted.
# The data of the choice-test were analyzed using Student’s t-test (STATISTICA 13.1. package). […] If aphids settled mainly on the control leaf (p < 0.05), the compound tested in the respective choice-test was stated a deterrent. From the data thus obtained the relative index of deterrence (DI) was calculated: DI = (C − T/C + T) where C was the number of aphids settled on control leaf, T was the number of aphids settled on the leaf treated with the tested compound. The value of DI ranged between 1 (ideal deterrent) and − 1 (ideal attractant)[41].
# [2] = system: MV4-11 cells; experiment: Cell cycle analysis by flow cytometry (propidium iodide); assay type: cell-based, human; conditions: MV4-11, 75 µM, 72 h
# Protocol: Cell cycle analysis was carried out according to the procedure previously described. The MV4-11 cells were seeded at the density of 1 × 10^5 cells/well of culture medium on 24-well plates (Sarstedt, Germany) to the final volume of 2 mL and were exposed to the test compounds at concentrations 75 μM for 72 h. After incubation, the cells were collected and 1 × 10^6 of cells were washed twice in cold PBS and fixed for 24 h in 70% ethanol at − 20 °C. Then the cells were washed twice in PBS and incubated with RNAse (8 μg/mL, Fermentas, Germany) at 37 °C for 1 h. The cells were stained for 30 min. with propidium iodide (50 μg/mL, Sigma Aldrich, Germany) at 4 °C and the cellular DNA content was analyzed by flow cytometry using BD LSRFortessa cytometer (BD Bioscience, San Jose, USA). Compounds at each concentration were tested at least three times independently. Obtained results were analyzed using Flowing software 2 (Cell Imaging Core, Turku Centre for Biotechnology, University of Turku Åbo Akademi University).
# [3] = system: BALB/3T3 cells; experiment: Toxicity towards normal fibroblasts, SRB assay; assay type: cell-based; conditions: 72 h exposure, mean ± SD, n.a = no activity in concentration of 5, 25, 125, 625 μM
# Protocol: (§1) Human biphenotypic B myelomonocytic leukemia MV4-11, human colon cancer LoVo cell line and normal mouse fibroblast BALB/3T3 cells were obtained from American Type Culture Collection (Rockville, Maryland, USA), human lung carcinoma A549 cells were obtained from European Collection of Authenticated Cell Cultures (UK). All the cell lines are being maintained at the Hirszfeld Institute of Immunology and Experimental Therapy, PAS, Wroclaw, Poland and were cultured according the procedure described before.
# (§2) Cell lines were cultured according to the protocol described before. MV4-11 cells were cultured in RPMI 1640 medium (Gibco, UK) with 1.0 mM sodium pyruvate, and 10% fetal bovine serum (FBS) (all from Sigma-Aldrich, Germany). A549, LoVo and LoVo/DX cells were cultured in RPMI 1640 + Opti-MEM (1:1) (both from Gibco, UK) supplemented with 5% fetal bovine serum, 1.0 mM sodium pyruvate (LoVo and LoVo/DX cells) (all from Sigma Aldrich Germany) and 0.1 μg/mL doxorubicin chloride (Accord) (only LoVo/DX cells). BALB/3T3 cells in Dulbecco medium (IIET, Poland) supplemented with 10% fetal bovine serum (Sigma-Aldrich, Germany). All culture media were supplemented with 2 mM L-glutamine (Sigma-Aldrich, Germany), 100 units/mL penicillin, and 100 µg/mL streptomycin (both from Polfa Tarchomin S.A., Poland). All cell lines were grown at 37 °C with 5% CO2 humidified atmosphere.
# (§3) The solutions of the compounds (50 mM) were prepared by dissolving the substances in DMSO (Sigma Aldrich, Germany). Then the tested compounds were diluted in culture medium to reach the final concentrations of 625, 125, 25 and 5 μM. Before adding of the tested compounds (24 h prior), the cells were plated in 96-well plates (Sarstedt, Germany) at a density of 1 × 10^4 or 0.5 × 10^4 (A549) cells per well. The assay was performed after 72 h of exposure to 625, 125, 25 and 5 μM of the tested agents. The in vitro cytotoxic effect of all agents was examined using the MTT (MV4-11) or SRB assay, described previously. The results were calculated as an IC50 (inhibitory concentration 50%) the concentration of tested agent, which is cytotoxic for 50% of the cancer cells. Each compound in each concentration was tested in triplicate in a single experiment, which was repeated 3–5 times.
# [4] = system: A549 cells; experiment: Antiproliferative activity, SRB assay; assay type: cell-based, human; conditions: for IC50: 72 h exposure, SRB, mean ± SD, n.a = no activity in concentration of 5, 25, 125, 625 μM; for Selectivity index SI, A549: SI = IC50 BALB/3T3 / IC50 A549
# Protocol: as §1, §2, §3
# [5] = system: LoVo cells; experiment: Antiproliferative activity, SRB assay; assay type: cell-based, human; conditions: for IC50: 72 h exposure, SRB, mean ± SD, n.a = no activity in concentration of 5, 25, 125, 625 μM; for Selectivity index SI, LoVo: SI = IC50 BALB/3T3 / IC50 LoVo
# Protocol: as §1, §2, §3
# [6] = BALB/3T3, normal mouse fibroblasts
compound,measurement,setting,value
"CC(C)CCCC(C)CCCC(C)CCC[C@]1(C)CC(=O)O[C@H]1CCl (stereo in doubt) [compound 7, cis-5-chloromethyl-4-methyl-4-(4′,8′,12′-trimethyltridecyl)dihydrofuran-2-one]",Mean number of aphids settled on treated (test) leaf,[1]; 1 h after access,4.1 (± 1.0)
same,Mean number of aphids settled on treated (test) leaf,[1]; 2 h after access,3.5 (± 0.7)
same,Mean number of aphids settled on treated (test) leaf,[1]; 24 h after access,4.8 (± 0.9)
same,Induced death of cells,[2],20–30%
"CC(C)CCCC(C)CCCC(C)CCC[C@]1(C)CC(=O)O[C@H]1CBr (stereo in doubt) [compound 5, cis-5-Bromomethyl-4-methyl-4-(4′,8′,12′-trimethyltridecyl)dihydrofuran-2-one]",Mean number of aphids settled on treated (test) leaf,[1]; 1 h after access,3.4 (± 1.0)
same,Mean number of aphids settled on treated (test) leaf,[1]; 2 h after access,3.0 (± 1.1)
same,Mean number of aphids settled on treated (test) leaf,[1]; 24 h after access,5.6 (± 1.4)
same,IC50,[3]; [6],424 ± 140 µM
same,Induced death of cells,[2],20–30%
"3,7,11,15-tetramethylhexadec-2-en-1-ol [Phytol (1), reference compound]",Mean number of aphids settled on treated (test) leaf,[1]; 1 h after access,10.4 (± 1.3)
same,Mean number of aphids settled on treated (test) leaf,[1]; 2 h after access,7.9 (± 1.0)
same,Mean number of aphids settled on treated (test) leaf,[1]; 24 h after access,6.6 (± 0.9)
same,Effect on aphid settling behavior (deterrent / attractant),[1],deterrent properties
same,IC50,[4],64.1 ± 5.2 µM
same,"Selectivity index SI, A549",[4],1.01
same,IC50,[5],255 ± 46.5 µM
same,"Selectivity index SI, LoVo",[5],0.25
same,IC50,[3]; normal mouse fibroblasts,64.5 ± 12.9 µM
"CC(C)CCCC(C)CCCC(C)CCC[C@]1(C)CC(=O)O[C@@H]1CBr (stereo in doubt) [compound 4, trans-5-Bromomethyl-4-methyl-4-(4′,8′,12′-trimethyltridecyl)dihydrofuran-2-one]",Mean number of aphids settled on treated (test) leaf,[1]; 1 h after access,2.9 (± 0.7)
same,Mean number of aphids settled on treated (test) leaf,[1]; 2 h after access,2.4 (± 0.6)
same,Mean number of aphids settled on treated (test) leaf,[1]; 24 h after access,4.9 (± 1.7)
same,IC50,[3]; [6],348 ± 27.6 µM
same,Induced death of cells,[2],20–30%
"C=CC(C)(CCCC(C)CCCC(C)CCCC(C)C)CC(=O)O (stereo not drawn) [compound 3, 3,7,11,15-tetramethyl-3-vinylhexadecanoic acid]",Mean number of aphids settled on treated (test) leaf,[1]; 1 h after access,8.5 (± 2.1)
same,Mean number of aphids settled on treated (test) leaf,[1]; 2 h after access,8.9 (± 1.0)
same,Mean number of aphids settled on treated (test) leaf,[1]; 24 h after access,8.1 (± 1.3)
same,IC50,"[4]; Homo sapiens, A549",49.5 ± 2.9 µM
same,"Selectivity index SI, A549",[4],2.93
same,IC50,"[5]; Homo sapiens, LoVo",59.5 ± 1.1 µM
same,"Selectivity index SI, LoVo",[5],2.44
same,IC50,[3]; [6],145 ± 48 µM
same,Induced death of cells,[2],50%
"CC(C)CCCC(C)CCCC(C)CCC[C@]1(C)CC(=O)O[C@@H]1CCl (stereo in doubt) [compound 6, trans-5-Chloromethyl-4-methyl-4-(4′,8′,12′-trimethyltridecyl)dihydrofuran-2-one]",Mean number of aphids settled on treated (test) leaf,[1]; 1 h after access,5.8 (± 1.3)
same,Mean number of aphids settled on treated (test) leaf,[1]; 2 h after access,4.5 (± 1.1)
same,Mean number of aphids settled on treated (test) leaf,[1]; 24 h after access,10.0 (± 1.7)
same,Effect on aphid settling behavior (deterrent / attractant),[1],attractant properties
same,IC50,"[4]; Homo sapiens, A549",378 ± 32.8 µM
same,"Selectivity index SI, A549",[4],0.72
same,IC50,"[5]; Homo sapiens, LoVo",293 ± 33.1 µM
same,"Selectivity index SI, LoVo",[5],0.93
same,IC50,[3]; [6],273 ± 16.4 µM
same,Induced death of cells,[2],50%
